Assay results from US20260224582A1, “Heterobicyclic amides as inhibitors of CD38” (Cerevance, Inc., priority 2022, published 2026).

How the values were obtained:
Recombinant human CD38 = biological target: T1, Recombinant human CD38 (Homo sapiens, UniProt P28907); test: Human CD38 hydrolase assay (fluorescence-based, ε-NAD substrate); format: biochemical; settings: recombinant human CD38 0.8 nM, 4 μM ε-NAD, 30 min preincubation at 25° C.
T1 sequence (P28907 1-300): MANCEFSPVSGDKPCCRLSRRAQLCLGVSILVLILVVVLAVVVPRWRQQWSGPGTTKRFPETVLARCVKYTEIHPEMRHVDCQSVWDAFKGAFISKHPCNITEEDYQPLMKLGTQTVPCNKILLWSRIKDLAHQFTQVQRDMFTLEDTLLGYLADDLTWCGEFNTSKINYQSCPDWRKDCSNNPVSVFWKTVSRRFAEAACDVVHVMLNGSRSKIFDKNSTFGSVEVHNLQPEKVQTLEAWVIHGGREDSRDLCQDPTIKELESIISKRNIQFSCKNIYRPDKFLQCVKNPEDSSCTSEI
Description: The ability of test compounds to inhibit human CD38 hydrolase activity was measured in a fluorescence-based assay using non-physiological NAD^+ substrate analogue 1,N^6-etheno NAD^+ (ε-NAD). Recombinant human CD38 (0.8 nM) was preincubated with test compounds in 384-well black microplates for 30 min at 25° C. in PBS (—Ca^2+/Mg^2+) containing 0.005% BSA (pH 7.4). CD38 hydrolase activity was initiated by addition of 4 μM ε-NAD, which yields the fluorescent product 1,N^6-etheno ADP-ribose. Formation of fluorescent product was followed using ClarioStar Plus (BMG) microplate reader by reading fluorescence (excitation λ=300 nm; emission λ=410 nm) at two time points, one immediately after substrate addition (t=0) and one at 10 min (t=10). Data was analysed by subtracting the values detected at t=0 from t=10 to correct for variation in baseline fluorescence. Fluorescence values were converted to percent inhibition using the average of high signal (CD38 and ε-NAD) and low signal (CD38 and ε-NAD in the presence of a tool CD38 inhibitor) control wells. IC50 values were determined from a 10-point, half log concentration response curve with a four-parameter logistic equation.

Recombinant mouse CD38 = biological target: T2, Recombinant mouse CD38 (Mus musculus, UniProt P56528); test: Mouse CD38 hydrolase assay (fluorescence-based, ε-NAD substrate); format: biochemical; settings: recombinant mouse CD38 0.4 nM, 12 μM ε-NAD, 30 min preincubation at 25° C.
T2 sequence (P56528 1-304): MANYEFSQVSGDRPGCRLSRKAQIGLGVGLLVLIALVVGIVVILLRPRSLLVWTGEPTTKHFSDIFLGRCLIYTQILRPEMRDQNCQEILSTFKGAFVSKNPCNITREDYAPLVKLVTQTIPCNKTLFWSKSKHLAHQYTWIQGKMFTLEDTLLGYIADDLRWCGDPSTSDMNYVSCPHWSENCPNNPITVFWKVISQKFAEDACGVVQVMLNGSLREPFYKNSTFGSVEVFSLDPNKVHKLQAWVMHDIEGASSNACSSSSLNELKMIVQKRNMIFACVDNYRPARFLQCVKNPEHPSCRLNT
Description: The ability of test compounds to inhibit mouse CD38 hydrolase activity was measured in a fluorescence-based assay using non-physiological NAD^+ substrate analogue 1,N^6-etheno NAD^+ (&-NAD). Recombinant mouse CD38 (0.4 nM) was preincubated with test compounds in 384-well black microplates for 30 min at 25° C. in PBS (—Ca^2+/Mg^2+) containing 0.005% BSA (pH 7.4). CD38 hydrolase activity was initiated by addition of 12 μM ε-NAD, which yields the fluorescent product 1,N^6-etheno ADP-ribose. Formation of fluorescent product was followed using ClarioStar Plus (BMG) microplate reader by reading fluorescence (excitation λ=300 nm; emission λ=410 nm) at two time points, one immediately after substrate addition (t=0) and one at 6 min (t=6).
Data was analysed by subtracting the values detected at t=0 from t=6 to correct for variation in baseline fluorescence. Fluorescence values were converted to percent inhibition using the average of high signal (CD38 and ε-NAD) and low signal (CD38 and ε-NAD in the presence of a tool CD38 inhibitor) control wells. IC50 values were determined from a 10-point, halflog concentration response curve with a four-parameter logistic equation.

| IC50 (Recombinant human CD38) | IC50 (Recombinant mouse CD38) | Molecule |
| --- | --- | --- |
| ≤ 40 nM | ≤ 40 nM | O=C(N[C@H]1CC[C@H](NCC(F)(F)F)CC1)c1cn2cccc2c(-n2ccnc2)n1 [Example 15, 1-(1H-imidazol-1-yl)-N-((1r,4r)-4-((2,2,2-trifluoroethyl)amino)cyclohexyl)pyrrolo[1,2-a]pyrazine-3-carboxamide] |
| ≤ 1000 nM | ≤ 40 nM | O=C(N[C@H]1CC[C@H](NCC(F)F)CC1)c1cn2ccnc2c(-n2ccnc2)n1 [Example 38, N-((1r,4r)-4-((2,2-difluoroethyl)amino)cyclohexyl)-8-(1H-imidazol-1-yl) imidazo[1,2-a]pyrazine-6-carboxamide] |
| ≤ 1000 nM | ≤ 40 nM | O=C(N[C@H]1CC[C@H](N2CC[C@@H](F)C2)CC1)c1cn2cccc2c(-n2ccnc2)n1 [Example 24, N-((1R,4r)-4-((R)-3-fluoropyrrolidin-1-yl)cyclohexyl)-1-(1H-imidazol-1-yl)pyrrolo[1,2-a]pyrazine-3-carboxamide] |
| ≤ 40 nM | ≤ 40 nM | Cc1cncn1-c1nc(C(=O)N[C@H]2CC[C@H](NCC(F)(F)F)CC2)c2cccn2n1 [Example 42, 2-(5-methyl-1H-imidazol-1-yl)-N-((1r,4r)-4-((2,2,2-trifluoroethyl)amino)cyclohexyl)pyrrolo[2,1-f][1,2,4]triazine-4-carboxamide] |
| ≤ 100 nM | ≤ 40 nM | O=C(N[C@H]1CC[C@H](N2CC[C@@H](F)C2)CC1)c1nc(-n2ccnc2)nc2ncccc12 [Example 58, N-((1R,4r)-4-((R)-3-fluoropyrrolidin-1-yl)cyclohexyl)-2-(1H-imidazol-1-yl)pyrido[2,3-d]pyrimidine-4-carboxamide] |
| ≤ 1000 nM | ≤ 40 nM | O=C(N[C@H]1CC[C@H](NCC(F)(F)F)CC1)c1nc(-n2ccnc2)c2cccn2n1 [Example 16, 4-(1H-imidazol-1-yl)-N-((1r,4r)-4-((2,2,2-trifluoroethyl)amino)cyclohexyl)pyrrolo[2,1-f][1,2,4]triazine-2-carboxamide] |
| ≤ 100 nM | ≤ 40 nM | O=C(N[C@H]1CC[C@H](N2CC[C@H](F)C2)CC1)c1cn2nccc2c(-n2ccnc2)n1 [Example 36, N-((1S,4r)-4-((S)-3-fluoropyrrolidin-1-yl)cyclohexyl)-4-(1H-imidazol-1-yl)pyrazolo[1,5-a]pyrazine-6-carboxamide] |
| ≤ 100 nM | ≤ 40 nM | O=C(N[C@H]1CC[C@H](N2CC[C@@H](F)C2)CC1)c1cn2nccc2c(-n2ccnc2)n1 [Example 35, N-((1R,4r)-4-((R)-3-fluoropyrrolidin-1-yl)cyclohexyl)-4-(1H-imidazol-1-yl)pyrazolo[1,5-a]pyrazine-6-carboxamide] |
| ≤ 100 nM | ≤ 40 nM | O=C(N[C@H]1CC[C@H](N2CC[C@H](F)C2)CC1)c1nc(-n2ccnc2)nc2ncccc12 [Example 32, N-((1S,4r)-4-((S)-3-fluoropyrrolidin-1-yl)cyclohexyl)-2-(1H-imidazol-1-yl)pyrido[2,3-d]pyrimidine-4-carboxamide] |
| ≤ 40 nM | ≤ 40 nM | O=C(NC1CC2(CC(NCC(F)(F)F)C2)C1)c1nc(-n2ccnc2)nn2cccc12 (single isomer, unassigned) [Example 10, 2-(1H-imidazol-1-yl)-N-(6-((2,2,2-trifluoroethyl)amino)spiro[3.3]heptan-2-yl)pyrrolo[2,1-f][1,2,4]triazine-4-carboxamide] |
| ≤ 1000 nM | ≤ 40 nM | O=C(N[C@H]1CC[C@H](N2CC[C@H](F)C2)CC1)c1cn2cccc2c(-n2ccnc2)n1 [Example 22, N-((1S,4r)-4-((S)-3-fluoropyrrolidin-1-yl)cyclohexyl)-1-(1H-imidazol-1-yl)pyrrolo[1,2-a]pyrazine-3-carboxamide] |
| ≤ 40 nM | ≤ 40 nM | O=C(N[C@H]1CC[C@H](NCC(F)(F)F)CC1)c1nc(-n2ccnc2)cc2nccn12 [Example 2, 7-(1H-imidazol-1-yl)-N-((1r,4r)-4-((2,2,2-trifluoroethyl)amino)cyclohexyl) imidazo[1,2-c]pyrimidine-5-carboxamide] |
| ≤ 40 nM | ≤ 40 nM | O=C(NC1CC2(CC(NCC(F)(F)F)C2)C1)c1nc(-n2ccnc2)nn2cccc12 (single isomer, unassigned) [Example 9, 2-(1H-imidazol-1-yl)-N-(6-((2,2,2-trifluoroethyl)amino)spiro[3.3]heptan-2-yl)pyrrolo[2,1-f][1,2,4]triazine-4-carboxamide] |
| ≤ 40 nM | ≤ 40 nM | O=C(N[C@H]1C[C@H](NCC(F)(F)F)C1)c1nc(-n2ccnc2)nn2cccc12 [Example 11, 2-(1H-imidazol-1-yl)-N-((1r,3r)-3-((2,2,2-trifluoroethyl)amino)cyclobutyl)pyrrolo[2,1-f][1,2,4]triazine-4-carboxamide] |
| ≤ 100 nM | ≤ 40 nM | O=C(N[C@H]1CC[C@H](N2CC[C@@H](F)C2)CC1)c1cn2ncnc2c(-n2ccnc2)n1 [Example 26, N-((1R,4r)-4-((R)-3-fluoropyrrolidin-1-yl)cyclohexyl)-8-(1H-imidazol-1-yl)-[1,2,4]triazolo[1,5-a]pyrazine-6-carboxamide] |
| ≤ 1000 nM | ≤ 40 nM | O=C(N[C@H]1CC[C@H](N2CC[C@H](F)C2)CC1)c1cn2ccnc2c(-n2ccnc2)n1 [Example 40, N-((1S,4r)-4-((S)-3-fluoropyrrolidin-1-yl)cyclohexyl)-8-(1H-imidazol-1-yl) imidazo[1,2-a]pyrazine-6-carboxamide] |
| ≤ 40 nM | ≤ 40 nM | N-((1r,4r)-4-((2,2-difluoroethyl)amino)cyclohexyl)-2-(1H-imidazol-1-yl)pyrido[2,3-d]pyrimidine-4-carboxamide [Example 33] |
| ≤ 40 nM | ≤ 40 nM | O=C(N[C@H]1CC[C@H](N2CC[C@H](O)C2)CC1)c1nc(-n2ccnc2)nn2cccc12 [Example 23, N-((1S,4r)-4-((S)-3-hydroxypyrrolidin-1-yl)cyclohexyl)-2-(1H-imidazol-1-yl)pyrrolo[2,1-f][1,2,4]triazine-4-carboxamide] |
| ≤ 40 nM | ≤ 40 nM | O=C(N[C@H]1CC[C@H](NCC(F)F)CC1)c1nc(-n2ccnc2)nn2cccc12 [Example 31, N-((1r,4r)-4-((2,2-difluoroethyl)amino)cyclohexyl)-2-(1H-imidazol-1-yl)pyrrolo[2,1-f][1,2,4]triazine-4-carboxamide] |
| ≤ 100 nM | ≤ 40 nM | CC1(F)CN([C@H]2CC[C@H](NC(=O)c3cn4ncnc4c(-n4ccnc4)n3)CC2)C1 [Example 46, N-((1r,4r)-4-(3-fluoro-3-methylazetidin-1-yl)cyclohexyl)-8-(1H-imidazol-1-yl)-[1,2,4]triazolo[1,5-a]pyrazine-6-carboxamide] |
| ≤ 1000 nM | ≤ 40 nM | O=C(N[C@H]1CC[C@H](N2CC[C@H](F)C2)CC1)c1cn2ncnc2c(-n2ccnc2)n1 [Example 25, N-((1S,4r)-4-((S)-3-fluoropyrrolidin-1-yl)cyclohexyl)-8-(1H-imidazol-1-yl)-[1,2,4]triazolo[1,5-a]pyrazine-6-carboxamide] |
| ≤ 100 nM | ≤ 40 nM | O=C(N[C@H]1CC[C@H](N2CC(C(F)(F)F)C2)CC1)c1cn2ncnc2c(-n2ccnc2)n1 [Example 56, 8-(1H-imidazol-1-yl)-N-((1r,4r)-4-(3-(trifluoromethyl)azetidin-1-yl)cyclohexyl)-[1,2,4]triazolo[1,5-a]pyrazine-6-carboxamide] |
